Entries after “also recorded” stand apart in the source; their conditions may differ. Like-named read-outs stand apart in the source and are kept apart here.
Key:
[1] = tested on: Calu-6 human lung cancer cell; assay: Anti-tumor effect on xenograft tumor model of Calu-6 in nude mice (Example 9);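 on all read-outs here: each nude mouse received 5.0×10^6 Calu-6 cells implanted at the right shoulder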; conditions: 15 mg/kg i.v. BIW×4W; for Tumor volume: mean ± SE
Description: Calu-6 cells were cultured with a monolayer in vitro in MEM medium supplied with heat-inactivated fetal bovine serum with a volume ratio of 10%, and an incubator at 37° C. with the air containing CO2 with a proportion of 5%. The tumor cells were passaged with digestion by trypsin-EDTA twice a week. The cells in the exponential growth phase were collected, counted, and used for inoculation.
(§1) 5.0×10^6 of Calu-6 tumor cells were suspended in 0.1 ml of PBS, inoculated to each nude mouse at the right shoulder, and there were totally 34 mice inoculated.

[2] = Body weight, survival and tolerance of mice bearing Calu-6 (Example 9);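 on all read-outs here: nude mice bearing Calu-6 tumours, established by implanting 5.0×10^6 cells at the right shoulder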; conditions: 15 mg/kg i.v. BIW×4W; for Body weight of animal: mean ± SE
Description: as §1

[3] = tested on: A549 human non-small cell lung cancer cells; assay: Anti-tumor effect on xenograft tumor model of A549 in nude mice (Example 10);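 on all read-outs here: nude mice bearing A549 xenografts established by inoculating 1.0×10^7 cells in PBS at the right shoulder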; conditions: 15 mg/kg i.v. BIW×4W; for Tumor volume: mean ± SE
Description: A549 cells were cultured with a monolayer in vitro in RPMI1640 medium supplied with heat-inactivated fetal bovine serum with a volume ratio of 10%, and an incubator at 37° C. with the air containing CO2 with a proportion of 5%. The tumor cells were passaged with digestion by trypsin-EDTA twice a week. The cells in the exponential growth phase were collected, counted, and used for inoculation.
(§2) 1.0×10^7 of A549 tumor cells were suspended in 0.1 ml of PBS, inoculated to each nude mouse at the right shoulder, and there were totally 36 mice inoculated.

[4] = tested on: H460 human non-small cell lung cancer cells; conditions: 15 mg/kg i.v. BIW×3W; for Tumor volume: mean ± SE
Description: (§3) 5.0×10^6 of H460 tumor cells were suspended in 0.1 ml of PBS, inoculated to each nude mouse at the right shoulder, and there were totally 34 mice inoculated. 8 days later the mean tumor volume was desired to reach about 143 mm^3, the mice with a smaller or larger tumor were removed and the remaining 24 mice were divided into groups randomly according to tumor volume and administrated.

[5] = Body weight, survival and tolerance of mice bearing H460 (Example 8); conditions: 15 mg/kg i.v. BIW×3W; for Body weight of animal: mean ± SE
Description: as §3

[6] = Body weight, survival and tolerance of mice bearing A549 (Example 10);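 on all read-outs here: nude mice, each given 1.0×10^7 A549 tumor cells in the right shoulder region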; conditions: 15 mg/kg i.v. BIW×4W; for Body weight of animal: mean ± SE
Description: as §2

[7] = acids, bases, physiological conditions; in words; cited from earlier work
[8] = in words; cited from earlier work
[9] = tested on: human hepatoma cell plc/prf/5; assay: Anti-tumor effect on xenograft tumor model of plc/prf/5 in nude mice (Example 6); conditions: for Tumor volume: 25 mg/kg i.v. QD×5, mean ± SE
Description: 10 days later the mean tumor volume was desired to reach about 161 mm^3, the mice with a smaller or larger tumor were removed and the remaining 24 mice were divided into groups randomly according to tumor volume and administrated.
Wherein QW×4W represents intravenous injection once a week for 4 weeks, BIW×4W represents intravenous injection once every two weeks for 4 weeks, the same below.

[10] = tested on: human hepatoma cell Hep3B; assay: Anti-tumor effect on xenograft tumor model of Hep3B in immune deficiency mice (Example 7); conditions: for Tumor volume: mean ± SE
[11] = Body weight, survival and tolerance of mice bearing plc/prf/5 (Example 6); assay type: in vivo, nude mouse; conditions: for Body weight of animal: 25 mg/kg i.v. QD×5, mean ± SE
Excerpt: Wherein QW×4W represents intravenous injection once a week for 4 weeks, BIW×4W represents intravenous injection […] for 4 weeks, the same below. (2) Experimental Results

[12] = Body weight, survival and tolerance of mice bearing Hep3B (Example 7); assay type: in vivo, mouse; conditions: 15 mg/kg i.v. (QD×5)×2W, mean ± SE
[13] = tested on: human hepatoma cell plc/prf/5; assay: Anti-tumor effect on subcutaneous transplantation tumor model of plc/prf/5 in NOD/SCID mice (Example 5); assay type: in vivo, NOD/SCID mouse; conditions: for Tumor volume: 10 mg/kg (counted with rapamycin) i.v. Q2W×2W, mean ± SE
Description: The tumor cells were passaged with digestion by trypsin-EDTA twice a week. The cells in the exponential growth phase were collected, counted, and used for inoculation.
1×10^7 of plc/prf/5 tumor cells were suspended in 0.1 ml of mixed solution (PBS:Matrigel=4:1), inoculated to each NOD/SCID mouse at the right shoulder.
Wherein Q2W×2W represents intravenous injection […] for 2 weeks, the same below. (2) Experimental Results

[14] = 5-FU 25 mg/kg, LPR-2 30 and 45 mg/kg
[15] = 15 mg/kg i.v. (QD×5)×2W, vs physiological saline
[16] = 44th day, 15 mg/kg i.v. (QD×5)×2W, Mean ± SEM

## CC(=O)O[C@H]1C(=O)[C@@]2(C)[C@H]([C@H](OC(=O)c3ccccc3)[C@]3(O)C[C@H](OC(=O)[C@H](O)[C@@H](NC(=O)c4ccccc4)c4ccccc4)C(C)=C1C3(C)C)[C@]1(OC(C)=O)CO[C@@H]1C[C@@H]2O [Paclitaxel, reference compound]
[1]
  TGD (to 1,000 mm^3): >8
[1]; vs physiological saline
  T/C (%) RTV: 16%
  T/C (%) TW: 13%
[1]; 42nd day, Mean ± SEM
  RTV: 2.31 ± 0.53
  Tumor weight: 202 ± 52 mg
[1]; day 14 after inoculation
  Tumor volume: 138 ± 14 mm^3
[1]; day 17 after inoculation
  Tumor volume: 159 ± 18 mm^3
[1]; day 21 after inoculation
  Tumor volume: 222 ± 23 mm^3
[1]; day 24 after inoculation
  Tumor volume: 219 ± 26 mm^3
[1]; day 28 after inoculation
  Tumor volume: 229 ± 37 mm^3
[1]; day 31 after inoculation
  Tumor volume: 264 ± 53 mm^3
[1]; day 35 after inoculation
  Tumor volume: 281 ± 59 mm^3
[1]; day 38 after inoculation
  Tumor volume: 282 ± 60 mm^3
[1]; day 42 after inoculation
  Tumor volume: 314 ± 72 mm^3
[2]; 6 animals per group
  N, number of surviving animals after completion of the treatment: 6
[2]; day 17 after inoculation
  Body weight of animal: 20.5 ± 0.2 g
[2]; day 21 after inoculation
  Body weight of animal: 20.5 ± 0.3 g
[2]; day 24 after inoculation
  Body weight of animal: 19.6 ± 0.4 g
[2]; day 28 after inoculation
  Body weight of animal: 19.8 ± 0.4 g
[2]; day 31 after inoculation
  Body weight of animal: 19.7 ± 0.6 g
[2]; day 35 after inoculation
  Body weight of animal: 20.1 ± 0.5 g
[2]; day 38 after inoculation
  Body weight of animal: 20.1 ± 0.4 g
[3]
  TGD (to 1,000 mm^3): >7
[3]; vs physiological saline
  T/C (%) RTV: 24%
  T/C (%) TW: 19%
[3]; 52nd day, Mean ± SEM
  RTV: 2.35 ± 0.16
  Tumor weight: 253 ± 52 mg
[3]; day 24 after inoculation
  Tumor volume: 138 ± 13 mm^3
[3]; day 28 after inoculation
  Tumor volume: 196 ± 24 mm^3
[3]; day 31 after inoculation
  Tumor volume: 230 ± 35 mm^3
[3]; day 35 after inoculation
  Tumor volume: 260 ± 49 mm^3
[3]; day 38 after inoculation
  Tumor volume: 265 ± 48 mm^3
[3]; day 42 after inoculation
  Tumor volume: 294 ± 41 mm^3
[3]; day 45 after inoculation
  Tumor volume: 327 ± 54 mm^3
[3]; day 49 after inoculation
  Tumor volume: 342 ± 54 mm^3
[3]; day 52 after inoculation
  Tumor volume: 331 ± 49 mm^3
[4]
  TGD (to 1,000 mm^3): 7
[4]; vs physiological saline
  T/C (%) RTV: 59%
  T/C (%) TW: 66%
[4]; 29th day, Mean ± SEM
  RTV: 9.03 ± 0.93
  Tumor weight: 1053 ± 146 mg
[4]; day 8 after inoculation
  Tumor volume: 143 ± 15 mm^3
[4]; day 12 after inoculation
  Tumor volume: 295 ± 42 mm^3
[4]; day 15 after inoculation
  Tumor volume: 400 ± 70 mm^3
[4]; day 19 after inoculation
  Tumor volume: 519 ± 97 mm^3
[4]; day 22 after inoculation
  Tumor volume: 680 ± 110 mm^3
[4]; day 26 after inoculation
  Tumor volume: 944 ± 117 mm^3
[4]; day 29 after inoculation
  Tumor volume: 1,281 ± 184 mm^3
[5]; 6 animals per group
  N, number of surviving animals after completion of the treatment: 6
[5]; day 8 after inoculation
  Body weight of animal: 20.1 ± 0.4 g
[5]; day 12 after inoculation
  Body weight of animal: 19.9 ± 0.3 g
[5]; day 15 after inoculation
  Body weight of animal: 19.8 ± 0.2 g
[5]; day 19 after inoculation
  Body weight of animal: 19.5 ± 0.2 g
[5]; day 22 after inoculation
  Body weight of animal: 18.6 ± 0.3 g
[6]; 6 animals per group
  N, number of surviving animals after completion of the treatment: 6
[6]; day 24 after inoculation
  Body weight of animal: 20.6 ± 0.4 g
[6]; day 28 after inoculation
  Body weight of animal: 20.8 ± 0.4 g
[6]; day 31 after inoculation
  Body weight of animal: 20.6 ± 0.4 g
[6]; day 35 after inoculation
  Body weight of animal: 20.8 ± 0.5 g
[6]; day 38 after inoculation
  Body weight of animal: 20.8 ± 0.6 g
[6]; day 42 after inoculation
  Body weight of animal: 21.6 ± 0.6 g
[6]; day 45 after inoculation
  Body weight of animal: 21.3 ± 0.6 g
[6]; day 49 after inoculation
  Body weight of animal: 21.3 ± 0.7 g
[6]; day 52 after inoculation
  Body weight of animal: 21.8 ± 0.6 g

## CO[C@H]1C[C@@H]2CC[C@@H](C)[C@@](O)(O2)C(=O)C(=O)N2CCCC[C@H]2C(=O)O[C@H]([C@H](C)C[C@@H]2CC[C@@H](O)[C@H](OC)C2)CC(=O)[C@H](C)/C=C(\C)[C@@H](O)[C@@H](OC)C(=O)[C@H](C)C[C@H](C)/C=C/C=C/C=C/1C [Rapamycin]
[7]
  stability: degraded even under physiological conditions

## CO[C@H]1C[C@@H]2CC[C@@H](C)[C@@](O)(O2)C(=O)C(=O)N2CCCC[C@H]2C(=O)O[C@H]([C@H](C)C[C@@H]2CC[C@@H](OCCO)[C@H](OC)C2)CC(=O)[C@H](C)/C=C(\C)[C@@H](O)[C@@H](OC)C(=O)[C@H](C)C[C@H](C)/C=C/C=C/C=C/1C [Everolimus, 42-O-(2-hydroxyethyl)-rapamycin]
[8]
  water-solubility: better water-solubility than that of rapamycin

## O=c1[nH]cc(F)c(=O)[nH]1 [5-FU, reference compound]
[9]; [14]
  anti-tumor effect (in words): obvious anti-tumor effect
[9]; day 10 after inoculation
  Tumor volume: 170 ± 16 mm^3
[9]; day 13 after inoculation
  Tumor volume: 118 ± 7 mm^3
[9]; day 17 after inoculation
  Tumor volume: 69 ± 4 mm^3
[10]; 15 mg/kg i.v. (QD×5)×2W
  TGD (to 1,000 mm^3): 6
[10]; [15]
  T/C (%) RTV: 106%
  T/C (%) TW: 109%
[10]; 5-FU 15 mg/kg, LPR-2 30 and 45 mg/kg
  anti-tumor effect (in words): not significant
[10]; [16]
  RTV: 4.53 ± 0.32
  Tumor weight: 1695 ± 289 mg
[10]; day 16 after inoculation, 15 mg/kg i.v. (QD×5)×2W
  Tumor volume: 453 ± 66 mm^3
[10]; day 20 after inoculation, 15 mg/kg i.v. (QD×5)×2W
  Tumor volume: 567 ± 84 mm^3
[10]; day 23 after inoculation, 15 mg/kg i.v. (QD×5)×2W
  Tumor volume: 667 ± 105 mm^3
[10]; day 27 after inoculation, 15 mg/kg i.v. (QD×5)×2W
  Tumor volume: 820 ± 149 mm^3
[10]; day 30 after inoculation, 15 mg/kg i.v. (QD×5)×2W
  Tumor volume: 850 ± 150 mm^3
[10]; day 34 after inoculation, 15 mg/kg i.v. (QD×5)×2W
  Tumor volume: 1,123 ± 226 mm^3
[10]; day 37 after inoculation, 15 mg/kg i.v. (QD×5)×2W
  Tumor volume: 1,500 ± 295 mm^3
[10]; day 41 after inoculation, 15 mg/kg i.v. (QD×5)×2W
  Tumor volume: 1,793 ± 342 mm^3
[10]; day 44 after inoculation, 15 mg/kg i.v. (QD×5)×2W
  Tumor volume: 2,114 ± 395 mm^3
[11]; [14]
  toxicity / tolerance (in words): so toxic with this dosage that all the animals died; also recorded: a significant toxicity and the whole group of animals died
[11]; day 10 after inoculation
  Body weight of animal: 19.6 ± 0.3 g
[11]; day 17 after inoculation
  Body weight of animal: 14.7 ± 0.5 g
[12]; day 20 after inoculation
  Body weight of animal: 19.4 ± 0.4 g
[12]; day 23 after inoculation
  Body weight of animal: 19.7 ± 0.3 g
[12]; day 27 after inoculation
  Body weight of animal: 18.6 ± 0.3 g
[12]; day 30 after inoculation
  Body weight of animal: 18.1 ± 0.3 g
[12]; day 34 after inoculation
  Body weight of animal: 18.5 ± 0.4 g
[12]; day 37 after inoculation
  Body weight of animal: 18.3 ± 0.3 g
[12]; day 41 after inoculation
  Body weight of animal: 18.1 ± 0.3 g

## Y-type polyethylene glycol (40K)-glutamic acid dipeptide-rapamycin conjugate [LPR-3]
[13]; 10 mg/kg counted with rapamycin, i.v. Q2W×2W
  anti-tumor effect (in words): stronger antitumor activity than that of polyethylene glycol-rapamycin (LPR-1); also recorded: a certain anti-tumor effect
[13]; 10 mg/kg i.v. Q2W×2W
  Days for delaying tumor growth (to 1000 mm^3): >7 days
[13]; 10 mg/kg i.v. Q2W×2W, day 38, vs vehicle control
  Tumor control rate T/C (%): 47%
[13]; day 24 after inoculation
  Tumor volume: 358 ± 62 mm^3
[13]; day 27 after inoculation
  Tumor volume: 455 ± 85 mm^3
[13]; day 31 after inoculation
  Tumor volume: 569 ± 100 mm^3
[13]; day 34 after inoculation
  Tumor volume: 754 ± 151 mm^3
[13]; day 38 after inoculation
  Tumor volume: 848 ± 178 mm^3

— patent US10098870B2 (JENKEM TECHNOLOGY CO., LTD. (BEIJING), priority 2013, dated 2018)
